Test results taken from the NIST ThermoML archive (doi:10.1021/je800110r).

Conditions: 333.15 K, Liquid, Vibrating tube method

CCCCCCCCCC [decane]
Conditions	mass density [kg/m3]
19251 kPa	716.4
19274 kPa	716.4
19314 kPa	716.5
19349 kPa	716.6
19381 kPa	716.6
19417 kPa	716.4
19450 kPa	716.6
19479 kPa	716.6
19511 kPa	716.6
19540 kPa	716.7
19568 kPa	716.7
19592 kPa	716.6
19616 kPa	716.7
19651 kPa	716.8
19679 kPa	716.8
19711 kPa	716.7
19731 kPa	716.7
19756 kPa	716.9
19796 kPa	716.8
19819 kPa	716.8
19856 kPa	716.9
19885 kPa	717
19910 kPa	716.9
19934 kPa	717
19963 kPa	717
19996 kPa	716.9
20029 kPa	717.1
20054 kPa	717.2
20083 kPa	717
20116 kPa	717
20150 kPa	717.1
20188 kPa	717.1
20228 kPa	717.3
20254 kPa	717.2
20284 kPa	717.3
20318 kPa	717.2
20356 kPa	717.3
20390 kPa	717.3
20425 kPa	717.4
20464 kPa	717.3
20494 kPa	717.3
20525 kPa	717.4
20552 kPa	717.5
20579 kPa	717.5
20606 kPa	717.4
20628 kPa	717.4
20654 kPa	717.5
20695 kPa	717.6
20730 kPa	717.5
20769 kPa	717.6
20801 kPa	717.6
20841 kPa	717.6
20873 kPa	717.7
20900 kPa	717.7
20931 kPa	717.7
20959 kPa	717.8
20996 kPa	717.7
21022 kPa	717.8
21055 kPa	717.8
21176 kPa	717.9
21204 kPa	717.9
21251 kPa	717.9
21280 kPa	718
21313 kPa	718.1
21352 kPa	718.1
21376 kPa	718.1
21409 kPa	718.2
21433 kPa	718.1
21462 kPa	718.2
21500 kPa	718.2
21529 kPa	718.2
21573 kPa	718.3
21612 kPa	718.4
21655 kPa	718.3
21690 kPa	718.4
21725 kPa	718.4
21755 kPa	718.4
21861 kPa	718.6
21901 kPa	718.5
21931 kPa	718.6
21967 kPa	718.6
22007 kPa	718.5
22038 kPa	718.6
22074 kPa	718.7
22115 kPa	718.7
22162 kPa	718.7
22193 kPa	718.8
22224 kPa	718.8
22261 kPa	718.8
22293 kPa	718.8
22345 kPa	718.9
22381 kPa	718.9
22419 kPa	719
22471 kPa	719
22498 kPa	718.9
22530 kPa	719
22561 kPa	719
22611 kPa	719
22649 kPa	719.1
22677 kPa	719.1
22726 kPa	719.1
22771 kPa	719.2
22816 kPa	719.2
22849 kPa	719.4
22899 kPa	719.3
22927 kPa	719.4
22959 kPa	719.3
23000 kPa	719.3
23038 kPa	719.5
23068 kPa	719.3
23096 kPa	719.5
23134 kPa	719.6
23172 kPa	719.5
23219 kPa	719.5
23252 kPa	719.6
23281 kPa	719.5
23314 kPa	719.6
23339 kPa	719.7
23382 kPa	719.7
23416 kPa	719.8
23452 kPa	719.7
23491 kPa	719.8
23539 kPa	719.9
23579 kPa	719.7
23623 kPa	719.9
23657 kPa	719.9
23697 kPa	719.9
23726 kPa	719.9
23766 kPa	720
23797 kPa	720
23831 kPa	719.9
23868 kPa	720.1
23898 kPa	720.1
23943 kPa	720.1
23979 kPa	720
24014 kPa	720.1
24049 kPa	720.1
24085 kPa	720.1
24131 kPa	720.3
24177 kPa	720.3
24224 kPa	720.2
24260 kPa	720.2
24308 kPa	720.3
24355 kPa	720.4
24402 kPa	720.5
24433 kPa	720.5
24481 kPa	720.5
24513 kPa	720.5
24550 kPa	720.5
24586 kPa	720.6
24618 kPa	720.6
24656 kPa	720.6
24700 kPa	720.6
24738 kPa	720.7
24783 kPa	720.8
24815 kPa	720.9
24859 kPa	720.8
24897 kPa	720.9
24935 kPa	720.9
24974 kPa	720.7
25013 kPa	721
25058 kPa	720.9
25114 kPa	721.1
25142 kPa	721
25177 kPa	721
25213 kPa	721.1
25259 kPa	721.1
25303 kPa	721.2
26374 kPa	721.9
26417 kPa	722
26462 kPa	722.1
26501 kPa	722
27273 kPa	722.7
27328 kPa	722.6
27371 kPa	722.6
27419 kPa	722.6
29838 kPa	724.5
29868 kPa	724.5
29913 kPa	724.5
29948 kPa	724.6
29988 kPa	724.7
30720 kPa	725.2
30760 kPa	725.2
30787 kPa	725.3
30831 kPa	725.2
30857 kPa	725.2
30898 kPa	725.3
30924 kPa	725.4
30960 kPa	725.2
31000 kPa	725.3
31027 kPa	725.4
31059 kPa	725.4
31090 kPa	725.4
31122 kPa	725.4
31148 kPa	725.4
31190 kPa	725.5
31218 kPa	725.5
31259 kPa	725.6
31295 kPa	725.5
31332 kPa	725.6
31592 kPa	725.8
31630 kPa	725.8
31667 kPa	725.7
31731 kPa	725.9
31793 kPa	725.9
31821 kPa	725.9
31859 kPa	726
31893 kPa	725.9
31921 kPa	726.1
31956 kPa	726
31994 kPa	726
32038 kPa	726.1
32086 kPa	726.1
32125 kPa	726
32150 kPa	726.2
32479 kPa	726.4
32505 kPa	726.4
32549 kPa	726.4
32589 kPa	726.4
32625 kPa	726.4
32670 kPa	726.7
32696 kPa	726.6
32737 kPa	726.6
32780 kPa	726.6
32812 kPa	726.5
32850 kPa	726.6
32883 kPa	726.6
32910 kPa	726.7
32948 kPa	726.7
32985 kPa	726.7
33027 kPa	726.8
33070 kPa	726.8
33098 kPa	726.9
33136 kPa	726.8
33179 kPa	726.8
33213 kPa	727
33251 kPa	726.8
33289 kPa	726.9
33328 kPa	726.9
33366 kPa	727
33404 kPa	727.1
33434 kPa	727
33473 kPa	727
33508 kPa	727
33553 kPa	727.1
33593 kPa	727.3
33633 kPa	727.1
33660 kPa	727.2
33693 kPa	727.3
33721 kPa	727.3
33748 kPa	727.3
33772 kPa	727.2
33796 kPa	727.3
33816 kPa	727.4
33851 kPa	727.3
33876 kPa	727.5
33907 kPa	727.3
33943 kPa	727.5
33976 kPa	727.5
34008 kPa	727.4
34037 kPa	727.5
34062 kPa	727.6
34091 kPa	727.5
34116 kPa	727.6
34150 kPa	727.6
34176 kPa	727.6
34219 kPa	727.7
34246 kPa	727.7
34288 kPa	727.7
34326 kPa	727.7
34351 kPa	727.7
34386 kPa	727.8
34412 kPa	727.8
34437 kPa	727.7
